The values that follow come from patent US7674823B2, “DNA-PK inhibitors” (Cancer Research Technology Limited, priority 2001, dated 2010).

Read-outs that look alike come from different tables or passages of the source.

The subject of one data set is HeLa cells. Kind of data set: Enhancement Ratio: cell growth inhibition (SRB assay) after 2 Gy irradiation. It counts as cell-based. The conditions noted are these: inhibitor 25 μM. Here is the method:
DNA-PK inhibitors were used at a fixed concentration of 25 micromolar. Radiation was delivered by a Faxitron 43855D X-ray system at a dose rate of 1Gy per minute The Enhancement ratio at 2 Gy irradiation was calculated from the formula: [formula] Cell growth was assessed using the sulforhodamine B (SRB) assay (Skehan, P., Storung, R., Scudiero, R., Monks, […]., Kenny, S. and Boyd, M. R. (1990) New calorimetric cytotoxicity assay for anticancer-drug screening. J. Natl. Cancer Inst. 82:1107-1112). 400 HeLa cells were seeded into each well of a flat-bottomed 48-well microtiter plate in a volume of 200 μl and incubated for 6 h at 37° C. […] Cells were allowed to grow for a further 1 h before irradiation or mock irradiation. Cells untreated with DNA-PK inhibitor or unirradiated were used as a control. Cells treated with DNA-PK inhibitor alone were used to assess the growth inhibition by the DNA-PK inhibitor. Cells were left for a further 16 h before replacing the media and allowing the cells to grow for a further 6 days at 37° C. The media was then removed and the cells fixed with 200 μl of ice cold 10% (w/v) trichloroacetic acid. The plates were incubated at 4° C. for 20 minutes and then washed four times with water. Each well of cells was then stained with 200 μl of 0.4% (w/v) SRB in 1% acetic acid for 20 minutes before washing four times with 1% acetic acid. Plates were then dried for 2 h at room temperature. The dye from the stained cells was solubilized by the addition of 100 μl of 10 mM Tris Base into each well. Plates were gently shaken and left at room temperature for 30 minutes before measuring the optical density at 564 nm on a Microquant microtiter plate reader.
(Sulforhodamine B stains cellular protein and so reports cell mass.)

Data set [1] deals with T1, Mammalian DNA-PK, isolated from Hela cell nuclear extract (Homo sapiens, UniProt P78527).
T1 construct: Mammalian DNA-PK, isolated from Hela cell nuclear extract; endogenous in cells; host or cells: HeLa cell nuclear extract (purified per Gell and Jackson 1999)
Kind of data set: DNA-PK inhibition assay (33P-ATP, filter binding). It counts as biochemical. The essentials: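 DNA-PK from HeLa nuclear extract preincubated with compound 10 min at 30 °C, then started with 50 μM Na-ATP final, ^33P-γATP and 30mer dsDNA (10 ng/μl), run 45 min at 30 °C.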

The subject of data set [2] is ATM protein. Kind of data set: ATM inhibition assay (immunoprecipitated ATM, GSTp53N66 substrate). It is filed as biochemical, human. Conditions: selectivity ratio from the IC50s for ATM and DNA-PK. The procedure:
(§1) In order to assess the inhibitory action of the compounds against ATM in vitro, the following assay was used to determine IC50 values.
(§2) ATM protein was immunoprecipitated from HeLa cell nuclear extract using rabbit polyclonal antisera raised to the C-terminal ˜500 amino-acid residues of the human ATM protein. The immunoprecipitation was performed according to the methodology described by Banin, S. et al. (1998) Enhanced phosphorylation of p53 by ATM in response to DNA damage. Science 281:1674-1677. 10 μl of immunoprecipitated ATM in Buffer C (50 mM Hepes, pH 7.4, 6 mM MgCl2, 150 mM NaCl, 0.1 mM sodium orthovanadate, 4 mM MnCl2, 0.1 mM dithiothreitol, 10% glycerol) was added to 32.5 μl of buffer C containing 1 μg of the ATM substrate GSTp53N66 in a V-bottomed 96 well polypropylene plate. The GSTp53N66 substrate is the amino terminal 66 amino acid residues of human wild type p53 fused to glutathione S-transferase. ATM phosphorylates p53 on the residue serine 15 (Banin, S. et al. (1998) Enhanced phosphorylation of p53 by ATM in response to DNA damage. Science 281:1674-1677). Varying concentrations of inhibitor were then added. […] After 10 minutes of incubation at 37° C., the reactions were initiated by the addition of 5 μl of 50 μM Na-ATP. After 1 h with shaking at 37° C., 150 μl of phosphate buffered saline (PBS) was added to the reaction and the plate centrifuged at 1500 rpm for 10 minutes. 5 μl of the reaction was then transferred to a 96 well opaque white plate containing 45 μl of PBS to allow the GSTp53N66 substrate to bind to the plate wells. The plate was covered and incubated at room temperature for 1 h with shaking before discarding the contents. The plate wells were washed twice by the addition of PBS prior to the addition of 3% (w/v) bovine serum albumin (BSA) in PBS. The plate was incubated at room temperature for 1 h with shaking before discarding the contents and washing twice with PBS. To the wells, 50 μl of a 1:10,000 dilution of primary phosphoserine-15 antibody (Cell Signaling Technology, #9284L) in 3% BSA/PBS was added to detect the phosphorylation event on the serine 15 residue of p53 elicited by the ATM kinase. After 1 h of incubation at room temperature with shaking, the wells were washed four times with PBS prior to the addition of an anti-rabbit HRP conjugated secondary antibody (Pierce, 31462) with shaking for 1 h at room temperature. The wells were then washed four times with PBS before the addition of chemiluminescence reagent (NEN Renaissance, NEL105). The plate was then shaken briefly, covered with a transparent plate seal and transferred to a TopCount NXT for chemiluminescent counting. Counts per second, following a one second counting time, were recorded for each reaction. The inhibition of ATM activity by compounds was calculated as described above for the DNA-PK assay.
(§3) The selectivity was determined by the following equation: […]

Data set [3] deals with T2, ATM protein (Homo sapiens, UniProt Q13315).
T2 construct: ATM protein was immunoprecipitated from HeLa cell nuclear extract; endogenous in cells; host or cells: HeLa cell nuclear extract (immunoprecipitate)
T2 sequence (Q13315 whole entry): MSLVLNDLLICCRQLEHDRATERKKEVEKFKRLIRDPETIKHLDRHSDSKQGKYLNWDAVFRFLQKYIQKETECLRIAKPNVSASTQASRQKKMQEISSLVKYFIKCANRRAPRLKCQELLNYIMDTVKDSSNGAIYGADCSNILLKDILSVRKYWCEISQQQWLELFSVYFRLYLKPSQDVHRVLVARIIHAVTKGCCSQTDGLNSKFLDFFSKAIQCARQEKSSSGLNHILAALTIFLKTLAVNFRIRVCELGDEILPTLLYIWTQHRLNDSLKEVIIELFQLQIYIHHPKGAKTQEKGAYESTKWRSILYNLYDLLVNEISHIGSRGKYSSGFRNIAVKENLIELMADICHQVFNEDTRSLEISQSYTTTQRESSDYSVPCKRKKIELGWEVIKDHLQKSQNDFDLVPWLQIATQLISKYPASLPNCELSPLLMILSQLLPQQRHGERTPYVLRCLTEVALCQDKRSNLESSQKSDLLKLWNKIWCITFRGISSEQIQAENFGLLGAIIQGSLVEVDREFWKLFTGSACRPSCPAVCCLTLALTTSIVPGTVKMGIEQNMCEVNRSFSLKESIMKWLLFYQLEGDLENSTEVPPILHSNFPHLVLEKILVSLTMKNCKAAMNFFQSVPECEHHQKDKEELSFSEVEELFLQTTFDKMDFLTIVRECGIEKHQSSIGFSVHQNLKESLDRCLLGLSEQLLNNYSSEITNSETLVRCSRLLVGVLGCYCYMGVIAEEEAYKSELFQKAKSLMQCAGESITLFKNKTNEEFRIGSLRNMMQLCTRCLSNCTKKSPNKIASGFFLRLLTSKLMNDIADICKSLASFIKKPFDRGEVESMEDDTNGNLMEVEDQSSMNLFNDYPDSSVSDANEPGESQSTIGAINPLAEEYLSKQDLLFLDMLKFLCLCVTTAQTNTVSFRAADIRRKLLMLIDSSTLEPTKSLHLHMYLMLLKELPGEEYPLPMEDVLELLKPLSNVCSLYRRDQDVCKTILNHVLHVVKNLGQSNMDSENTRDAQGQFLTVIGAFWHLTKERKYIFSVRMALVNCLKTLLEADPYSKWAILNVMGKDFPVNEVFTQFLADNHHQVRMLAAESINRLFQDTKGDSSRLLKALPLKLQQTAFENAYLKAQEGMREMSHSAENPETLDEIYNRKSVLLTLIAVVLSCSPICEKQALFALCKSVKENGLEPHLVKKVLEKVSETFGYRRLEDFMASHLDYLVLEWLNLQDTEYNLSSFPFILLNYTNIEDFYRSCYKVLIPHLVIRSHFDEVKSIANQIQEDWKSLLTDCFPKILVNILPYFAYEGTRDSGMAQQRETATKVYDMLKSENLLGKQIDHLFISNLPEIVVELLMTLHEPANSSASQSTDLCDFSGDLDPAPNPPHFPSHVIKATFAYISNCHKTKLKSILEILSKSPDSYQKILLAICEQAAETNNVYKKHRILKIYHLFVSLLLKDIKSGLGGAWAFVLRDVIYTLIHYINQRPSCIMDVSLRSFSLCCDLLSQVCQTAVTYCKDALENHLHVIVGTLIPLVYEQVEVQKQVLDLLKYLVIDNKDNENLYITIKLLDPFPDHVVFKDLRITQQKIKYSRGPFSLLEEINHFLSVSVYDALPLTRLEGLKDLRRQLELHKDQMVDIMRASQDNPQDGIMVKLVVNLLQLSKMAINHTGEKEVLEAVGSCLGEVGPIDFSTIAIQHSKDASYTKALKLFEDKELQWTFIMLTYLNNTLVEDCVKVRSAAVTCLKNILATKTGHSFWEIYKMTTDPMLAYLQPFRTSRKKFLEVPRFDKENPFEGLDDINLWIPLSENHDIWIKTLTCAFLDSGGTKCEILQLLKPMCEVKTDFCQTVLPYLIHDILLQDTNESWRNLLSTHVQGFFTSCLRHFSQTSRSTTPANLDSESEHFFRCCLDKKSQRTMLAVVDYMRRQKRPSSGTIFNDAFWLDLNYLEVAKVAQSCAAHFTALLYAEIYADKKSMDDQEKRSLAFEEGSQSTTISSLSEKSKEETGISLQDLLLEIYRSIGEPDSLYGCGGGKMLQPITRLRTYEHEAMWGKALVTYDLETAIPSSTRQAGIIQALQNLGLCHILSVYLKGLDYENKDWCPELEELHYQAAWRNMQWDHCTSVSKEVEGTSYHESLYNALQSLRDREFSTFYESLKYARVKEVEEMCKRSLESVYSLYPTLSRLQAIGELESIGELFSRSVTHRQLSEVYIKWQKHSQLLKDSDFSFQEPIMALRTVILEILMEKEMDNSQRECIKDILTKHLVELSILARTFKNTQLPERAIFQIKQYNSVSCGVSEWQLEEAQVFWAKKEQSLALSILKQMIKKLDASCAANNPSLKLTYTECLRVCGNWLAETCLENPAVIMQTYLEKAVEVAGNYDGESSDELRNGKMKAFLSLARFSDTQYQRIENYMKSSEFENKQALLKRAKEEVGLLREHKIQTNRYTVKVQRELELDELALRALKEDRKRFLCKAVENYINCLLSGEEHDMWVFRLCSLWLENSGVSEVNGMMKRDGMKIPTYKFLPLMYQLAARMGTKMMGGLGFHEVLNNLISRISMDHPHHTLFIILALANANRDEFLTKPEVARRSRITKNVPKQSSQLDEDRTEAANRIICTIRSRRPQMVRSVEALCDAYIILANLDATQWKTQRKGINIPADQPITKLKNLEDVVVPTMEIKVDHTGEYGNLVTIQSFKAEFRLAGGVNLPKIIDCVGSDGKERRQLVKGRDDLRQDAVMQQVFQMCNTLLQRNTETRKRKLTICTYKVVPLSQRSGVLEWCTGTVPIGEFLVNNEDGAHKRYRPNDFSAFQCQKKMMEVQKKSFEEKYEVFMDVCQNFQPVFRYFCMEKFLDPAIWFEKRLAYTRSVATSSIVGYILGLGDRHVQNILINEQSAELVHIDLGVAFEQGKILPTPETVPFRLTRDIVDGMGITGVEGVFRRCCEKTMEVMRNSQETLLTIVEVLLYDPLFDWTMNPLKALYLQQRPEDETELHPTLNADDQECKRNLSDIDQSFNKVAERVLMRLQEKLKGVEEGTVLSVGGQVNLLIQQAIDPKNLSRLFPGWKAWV
The data set is described as above. It counts as biochemical. Here is the method: as §1, §2, §3

Where [4] appears, read: IC50 of less than about 1 μM and/or % inhibition of more than about 50 at 1 μM, read-out: DNA-PK inhibition IC50 (particular efficacy).
Setting [5] is: concentration at which 50% of the enzyme activity is inhibited, read-out: DNA-PK Inhibition IC50.

One may read the IC50 as the concentration at which inhibition is half-maximal. What is called melting point is the temperature of the solid-liquid transition. The molecule `O=c1cc(N2CCOCC2)oc2c3c(ccc12)CCCC3` [Compound 297, 7,8,9,10-tetrahydro-benzo[h]-2-(morpholin-4-yl)-chromen-4-one] displayed a melting point of 220 to 222 °C. The “Enhancement Ratio (ER)” value in the data set on HeLa cells was 2.12. Besides, the IC50 in data set [1] (setting [4]) is < 1000 nM. In addition, the IC50 in data set [1] (setting [5]) was 500 nM. Further, the “Δ(DNA-PK/ATM)” value in the data set on ATM protein [2] is on record as 90. The IC50 against ATM protein [3] was determined as 45 µM.

Take `CC1CN(c2cc(=O)c3ccc4ccccc4c3o2)CCO1` (stereo not drawn) [Compound 317, 2-(2-Methyl-morpholin-4-yl)-benzo[h]chromen-4-one]: the melting point was in the range of 181 to 183 °C. In addition, in the data set with HeLa cells, the “Enhancement Ratio (ER)” value turned out to be 3.62. Moreover, the IC50 in data set [1] (setting [4]) is < 1000 nM. In addition, in data set [1] (setting [5]), the half-inhibitory concentration (IC50) worked out at 300 nM. The “Δ(DNA-PK/ATM)” value in the data set on ATM protein [2] is on record as >333. Moreover, on ATM protein [3], the IC50 was > 100 µM.

`O=C1c2ccccc2C(=O)N1CCCOc1ccc2c(=O)cc(N3CCOCC3)oc2c1` [Compound 422, N-[3-(2-(Morpholin-4-yl)-4-oxo-4H-chromen-7-yloxy)-propyl]-phthalimide] gave a melting point of 210 to 211 °C. Besides, the “Enhancement Ratio (ER)” value in the data set on HeLa cells was found to be 1.68. Moreover, the IC50 in data set [1] (setting [4]) is < 1000 nM. Moreover, the IC50 in data set [1] (setting [5]) is 500 nM. In addition, the “Δ(DNA-PK/ATM)” value in the data set with ATM protein [2] was >200. For the same molecule, the IC50 against ATM protein [3] is > 100 µM.
